The values that follow come from patent US20100098633A1, “SELECTIVE SEPRASE INHIBITORS” (Molecular Insight Pharmaceuticals, Inc., priority 2008, published 2010).

This assay deals with T1, recombinant human seprase (rhFAP) (Homo sapiens, UniProt Q12884).
T1 sequence (Q12884 26-760 limits assumed): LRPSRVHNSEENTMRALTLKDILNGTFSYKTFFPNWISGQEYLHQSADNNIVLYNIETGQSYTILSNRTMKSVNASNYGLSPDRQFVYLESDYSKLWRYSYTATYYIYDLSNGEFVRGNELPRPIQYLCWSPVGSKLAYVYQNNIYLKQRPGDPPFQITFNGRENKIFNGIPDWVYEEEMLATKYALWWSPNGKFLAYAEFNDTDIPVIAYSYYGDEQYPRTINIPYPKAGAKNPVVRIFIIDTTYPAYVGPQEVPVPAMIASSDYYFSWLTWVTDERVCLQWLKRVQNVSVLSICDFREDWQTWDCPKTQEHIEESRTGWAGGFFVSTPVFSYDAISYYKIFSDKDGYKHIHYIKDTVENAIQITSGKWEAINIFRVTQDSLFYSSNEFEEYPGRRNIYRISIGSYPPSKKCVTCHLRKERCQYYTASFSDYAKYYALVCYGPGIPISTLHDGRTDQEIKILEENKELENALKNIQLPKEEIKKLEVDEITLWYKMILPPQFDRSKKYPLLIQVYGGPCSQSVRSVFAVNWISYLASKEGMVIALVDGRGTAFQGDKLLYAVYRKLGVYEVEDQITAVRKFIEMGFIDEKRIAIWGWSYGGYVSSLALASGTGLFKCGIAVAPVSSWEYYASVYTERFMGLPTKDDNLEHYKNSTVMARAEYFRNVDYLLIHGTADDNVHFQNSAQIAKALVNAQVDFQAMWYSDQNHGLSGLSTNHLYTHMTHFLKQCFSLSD
The assay is described as follows: Inhibition of enzymatic activity of recombinant human seprase on Z-Gly-Pro-AMC (fluorescence). Conditions: for IC50: in vitro data against seprase, read-out: FAP (IC50 nM); for remaining activity at 0.005 µM: inhibitor 0.005 μM; for remaining activity at 0.005 µM / remaining activity at 0.05 µM / remaining activity at 0.5 µM / remaining activity at 5 µM / remaining activity at 500 µM: initial velocity normalized to control without test compound, 50 μM Z-Gly-Pro-AMC, read-out: Percent of Control; for remaining activity at 0.05 µM: inhibitor 0.05 μM; for remaining activity at 0.5 µM: inhibitor 0.5 μM; for remaining activity at 5 µM: inhibitor 5 μM; for remaining activity at 500 µM: inhibitor 500 μM. It is filed as biochemical. Here is the method: In vitro assaying of compounds for inhibition of dipeptidyl peptidase activity of seprase and DPP-IV can be achieved following the described in Edosada C. Y. et al. J. Biolog. Chem. 2006, 281, 7437-7444.
Selected test compounds were examined for their ability to inhibit the enzymatic activity of recombinant human seprase (rhFAP) on the substrate, benzyloxycarbonyl-Gly-Pro-7-amido-4-methylcoumarin (Z-Gly-Pro-AMC). In brief, 10 μg rhFAP was added to 50 μM Z-Gly-Pro-AMC in the presence of increasing concentrations of test compound, and enzymatic activity was determined by monitoring fluorescence (Ex. 355 nm/Em. 460 nm). Compound 1051 is the known inhibitor, Cbz-Gly-boroproline. Initial velocity of the reaction was calculated and normalized to control reactions conducted in the absence of test compound.
The inhibition was measured by the half maximal inhibitory concentration (IC50) of a compound of interest. The IC50 indicates how much of a particular compound is needed to inhibit seprase by half.

On to `O=C(NCC(=O)N1CCCC1B(O)O)c1ccccc1I` (stereo not drawn) [Compound 1023, 1-(2-(2-iodobenzamido)acetyl)pyrrolidin-2-ylboronic acid], for which the IC50 was 7 nM, the remaining activity at 0.005 µM came out at 42%, the remaining activity at 0.05 µM is 0% and the remaining activity at 0.5 µM was 0%. Moreover, the remaining activity at 5 µM is 0% and the remaining activity at 500 µM was found to be 0%.

Take `O=C(NCC(=O)N1CCCC1B(O)O)c1ccc(I)cc1` (stereo not drawn) [Compound 1024, 1-(2-(4-iodobenzamido)acetyl)pyrrolidin-2-ylboronic acid]: the “IC50 values against seprase (in words)” value is “low nanomolar range”, the 50% inhibitory concentration (IC50) is 3 nM, the remaining activity at 0.005 µM was determined as 22% and the remaining activity at 0.05 µM came to 0%. Also, the remaining activity at 0.5 µM is 0%, the remaining activity at 5 µM stood at 0% and the remaining activity at 500 µM worked out at 0%. In the case of `O=C(NCC(=O)N1CCCC1B(O)O)c1cccc(I)c1` (stereo not drawn) [Compound 1025, 1-(2-(3-iodobenzamido)acetyl)pyrrolidin-2-ylboronic acid], the half-inhibitory concentration (IC50) stood at 2 nM, the remaining activity at 0.005 µM came out at 0%, the remaining activity at 0.05 µM was 0% and the remaining activity at 0.5 µM amounted to 0%. Also, the remaining activity at 5 µM was found to be 0% and the remaining activity at 500 µM was found to be 0%. Turning to `O=C(NCC(=O)N1CCCC1B(O)O)c1ccc(I)cc1Cl` (stereo not drawn) [Compound 1026, 1-(2-(2-chloro-4-iodobenzamido)acetyl)pyrrolidin-2-ylboronic acid], the half-maximal inhibitory concentration (IC50) was 3 nM.

On to `O=C(NCC(=O)N1CCCC1B(O)O)c1cc(I)ccc1Cl` (stereo not drawn) [Compound 1027, 1-(2-(2-chloro-5-iodobenzamido)acetyl)pyrrolidin-2-ylboronic acid], for which the IC50 was found to be 5 nM. On to `O=C(NCC(=O)N1CCCC1B(O)O)c1cc(I)ccc1Br` (stereo not drawn) [Compound 1028, 1-(2-(2-bromo-5-iodobenzamido)acetyl)pyrrolidin-2-ylboronic acid], for which the IC50 was found to be 5 nM. With `O=C(NCC(=O)N1CCCC1B(O)O)c1cc(I)ccc1F` (stereo not drawn) [Compound 1029, 1-(2-(2-fluoro-5-iodobenzamido)acetyl)pyrrolidin-2-ylboronic acid], the IC50 is 8 nM. As for `O=C(NCC(=O)N1CCCC1B(O)O)c1ccc2cc(I)ccc2c1` (stereo not drawn) [Compound 1030, 1-(2-(6-iodo-2-naphthamido)acetyl)pyrrolidin-2-ylboronic acid], the “IC50 values against seprase (in words)” value is “low nanomolar range” and the IC50 is 2 nM. Regarding `N#Cc1ccc(I)cc1C(=O)NCC(=O)N1CCCC1B(O)O` (stereo not drawn) [Compound 1031, 1-(2-(2-cyano-5-iodobenzamido)acetyl)pyrrolidin-2-ylboronic acid], the IC50 came to 262 nM. For the compound `Cc1ccc(I)cc1C(=O)NCC(=O)N1CCCC1B(O)O` (stereo not drawn) [Compound 1032, 1-(2-(5-iodo-2-methylbenzamido)acetyl)pyrrolidin-2-ylboronic acid], the IC50 was found to be 11 nM. For `O=C(NCC(=O)N1CCCC1B(O)O)c1cc(I)ccn1` (stereo not drawn) [Compound 1033, 1-(2-(4-iodopicolinamido)acetyl)pyrrolidin-2-ylboronic acid], the concentration for half-maximal inhibition (IC50) is 500 nM.

Consider `O=C(NCC(=O)N1CCCC1B(O)O)Nc1ccc(I)cc1` (stereo not drawn) [Compound 1034, 1-(2-(3-(4-iodophenyl)ureido)acetyl)pyrrolidin-2-ylboronic acid], for which the IC50 amounted to 11 nM. Turning to `NC(Cc1ccc(I)cc1)C(=O)NCC(=O)N1CCCC1B(O)O` (stereo not drawn) [Compound 1035, 1-(2-(2-amino-3-(4-iodophenyl)propanamido)acetyl)pyrrolidin-2-ylboronic acid], the IC50 is 340 nM. As to `O=C(CN1CCN(Cc2cccc(I)c2)CC1)N1CCCC1B(O)O` (stereo not drawn) [Compound 1036, 1-(2-(4-(3-iodobenzyl)piperazin-1-yl)acetyl)pyrrolidin-2-ylboronic acid], the 50% inhibitory concentration (IC50) is 37 nM.

With `N#C[C@@H]1CCCN1C(=O)CNC(=O)c1ccc(I)cc1` [Compound 1039, (S)-N-(2-(2-cyanopyrrolidin-1-yl)-2-oxoethyl)-4-iodobenzamide], the concentration for half-maximal inhibition (IC50) was 511 nM. As to `N#C[C@@H]1CCCN1C(=O)CNC(=O)c1cccc(I)c1` [Compound 1040, (S)-N-(2-(2-cyanopyrrolidin-1-yl)-2-oxoethyl)-3-iodobenzamide], the “IC50 values against seprase (in words)” value is listed as “low nanomolar range” and the half-inhibitory concentration (IC50) came out at 35 nM. For `N#C[C@@H]1CCCN1C(=O)CNC(=O)c1ccc(I)cc1Cl` [Compound 1041, (S)-2-chloro-N-(2-(2-cyanopyrrolidin-1-yl)-2-oxoethyl)-4-iodobenzamide], the IC50 was 692 nM.

Turning to `N#C[C@@H]1CCCN1C(=O)CNC(=O)c1cc(I)ccc1Cl` [Compound 1042, (S)-2-chloro-N-(2-(2-cyanopyrrolidin-1-yl)-2-oxoethyl)-5-iodobenzamide], the IC50 is 785 nM. Regarding `N#C[C@@H]1CCCN1C(=O)CNC(=O)c1ccccc1I` [Compound 1043, (S)—N-(2-(2-cyanopyrrolidin-1-yl)-2-oxoethyl)-2-iodobenzamide], the 50% inhibitory concentration (IC50) is 115 nM. As for `N#Cc1ccc(I)cc1C(=O)NCC(=O)N1CCC[C@H]1C#N` [Compound 1044, (S)-2-cyano-N-(2-(2-cyanopyrrolidin-1-yl)-2-oxoethyl)-5-iodobenzamide], the IC50 came to 23700 nM. Still for that read-out and setting: the result for `N#C[C@@H]1CCCN1C(=O)CNC(=O)c1cc(I)cc(C(=O)O)c1` [Compound 1045, (S)-3-(2-(2-cyanopyrrolidin-1-yl)-2-oxoethylcarbamoyl)-5-iodobenzoic acid] reads 1440 nM; that for `N#C[C@H]1CCCN1C(=O)CNC(=O)c1cccc(I)c1` [Compound 1046, (R)-N-(2-(2-cyanopyrrolidin-1-yl)-2-oxoethyl)-3-iodobenzamide], 970 nM. On to `N#C[C@@H]1CCCN1C(=O)CNC(=O)[C@@H](CC(=O)O)NC(=O)c1cccc(I)c1` [Compound 1048, (R)-4-(2-((S)-2-cyanopyrrolidin-1-yl)-2-oxoethylamino)-3-(3-iodobenzamido)-4-oxobutanoic acid], for which the IC50 was found to be 7410 nM. As for `N#C[C@@H]1CCCN1C(=O)CNCc1cccc(I)c1` [Compound 1049, (S)-1-(2-(3-iodobenzylamino)acetyl)pyrrolidine-2-carbonitrile], the 50% inhibitory concentration (IC50) was found to be 953 nM.

In the case of `N#C[C@@H]1CCCN1C(=O)CN1CCN(Cc2cccc(I)c2)CC1` [Compound 1050, (S)-1-(2-(4-(3-iodobenzyl)piperazin-1-yl)acetyl)pyrrolidine-2-carbonitrile], the half-maximal inhibitory concentration (IC50) came out at 1150 nM. Consider `O=C(NCC(=O)N1CCCC1B(O)O)OCc1ccccc1` (stereo not drawn) [Compound 1051, Cbz-Gly-boroproline, reference compound], for which the concentration for half-maximal inhibition (IC50) was 67 nM, the remaining activity at 0.005 µM turned out to be 81%, the remaining activity at 0.05 µM came out at 46% and the remaining activity at 0.5 µM came out at 1%. The remaining activity at 5 µM turned out to be 0% and the remaining activity at 500 µM is 0%. Turning to `NC(Cc1ccc(I)cc1)C(=O)NCC(=O)N1CCCC1N` (stereo not drawn) [Compound 1061], the IC50 was 24500 nM. On to “Re(CO)3-2,2′-(2,2′-(6-(2-(2-boronopyrrolidin-1-yl)-2-oxoethylamino)-6-oxohexyl azanediyl)bis(methylene)bis(1H-imidazole-2,1-diyl))diacetic acid [Compound 1020]”, for which the half-maximal inhibitory concentration (IC50) came out at 4 nM.
